Test results taken from patent US11000033B2, “Ketone or oxime compound, and herbicide” (NISSAN CHEMICAL CORPORATION, priority 2014, dated 2021).

Tests used:
Assay type in all cases: in vivo
Scirpus juncoides = assay: Test Example 2: herbicidal activity, application during weed generation in submerged conditions (symbol B); conditions: Table 23; application herbicide amount 320 g/ha; grade 0-5 by criteria of Test Example 1
Procedure, shortened: (§1)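 Alluvial soil in pots was flooded to a 4 cm water depth and sown with a mix of the three weed species, then grown in a greenhouse at 25° C. to 30° C. At the one- to two-leaf stage, an emulsifiable formulation diluted in water to a set dose was applied to the water surface. Effects were scored visually 3 weeks later.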

wheat = assay: Test Example 4: effect on crop by soil treatment (symbol e); conditions: application herbicide amount 320 g/ha
Procedure, shortened: (§2)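 Plants grew in a 25° C. to 30° C. greenhouse after spot-sowing of seeds, including beet, rapeseed, wheat and rice, into sterilized diluvial soil under roughly 1.5 cm of cover soil.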

soybean [1] = assay: Test Example 5: effect on crop by foliage application, plastic box (symbol d); conditions: 320 g/ha, 3 weeks after application
Procedure, shortened: (§3)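 Seeds were sown in spots in sterilized diluvial soil held in a plastic box 21 cm × 13 cm × 7 cm deep, covered with about 1.5 cm of soil, and grown in a greenhouse at 25° C. to 30° C.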

rice = assay: Test Example 4: effect on crop by soil treatment (symbol b); conditions: application herbicide amount 320 g/ha
Procedure, shortened: as §2

Amaranthus retroflexus = assay: Test Example 5: herbicidal effect by foliage application, plastic box (symbol N); conditions: 320 g/ha, 3 weeks after application
Procedure, shortened: (§4)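 Greenhouse foliar test: seedlings at 14 days, grown 25° C. to 30° C. in sterilized diluvial soil; compound applied as an aqueous dilution of an emulsion; response read 3 weeks after spraying.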

transplanted rice plant = assay: Test Example 1: effect on crop, application before weed generation in submerged conditions (symbol a); conditions: application herbicide amount 320 g/ha
Procedure, shortened: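 Rice at 2.5 leaf stage transplanted into submerged soil (4 cm depth) sown with three weed species; herbicide applied before weed emergence.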

Lolium multiflorum Lam. [2] = assay: Test Example 5: herbicidal effect by foliage application, plastic box (symbol K); conditions: 320 g/ha, 3 weeks after application
Procedure, shortened: as §4

Digitaria ciliaris = assay: Test Example 5: herbicidal effect by foliage application, plastic box (symbol F); conditions: 320 g/ha, 3 weeks after application
Procedure, shortened: as §4

Avena fatua = assay: Test Example 4: herbicidal effect by soil treatment (symbol I); conditions: application herbicide amount 320 g/ha
Procedure, shortened: (§5)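 Seeds were sown in sterilized diluvial soil, covered with about 1.5 cm of soil, and the soil surface was sprayed with a water-diluted emulsion of the compound at a predetermined rate. Plants grew in a greenhouse at 25° C. to 30° C.; effects were scored visually 3 weeks after application.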

Lolium multiflorum Lam. [3] = assay: Test Example 4: herbicidal effect by soil treatment (symbol K); conditions: application herbicide amount 320 g/ha
Procedure, shortened: as §5

[4] = tested on: Echinochloa crus-galli var. crus-galli; assay: Test Example 4: herbicidal effect by soil treatment (symbol H); conditions: application herbicide amount 320 g/ha
Procedure, shortened: as §5

Monochoria vaginalis = assay: Test Example 2: herbicidal activity, application during weed generation in submerged conditions (symbol C); conditions: Table 23; application herbicide amount 320 g/ha; grade 0-5 by criteria of Test Example 1
Procedure, shortened: as §1

rapeseed = assay: Test Example 5: effect on crop by foliage application, plastic box (symbol g); conditions: 320 g/ha, 3 weeks after application
Procedure, shortened: as §3

[5] = tested on: Echinochloa crus-galli var. crus-galli; assay: Test Example 5: herbicidal effect by foliage application, plastic box (symbol H); conditions: 320 g/ha, 3 weeks after application
Procedure, shortened: as §4

Abutilon theophrasti = assay: Test Example 4: herbicidal effect by soil treatment (symbol M); conditions: application herbicide amount 320 g/ha
Procedure, shortened: as §5

soybean [6] = assay: Test Example 4: effect on crop by soil treatment (symbol d); conditions: application herbicide amount 320 g/ha
Procedure, shortened: as §2

beet = assay: Test Example 4: effect on crop by soil treatment (symbol f); conditions: application herbicide amount 320 g/ha
Procedure, shortened: as §2

corn = assay: Test Example 5: effect on crop by foliage application, plastic box (symbol c); conditions: 320 g/ha, 3 weeks after application
Procedure, shortened: as §3

Veronica persica = assay: Test Example 5: herbicidal effect by foliage application, plastic box (symbol R); conditions: 320 g/ha, 3 weeks after application
Procedure, shortened: as §4

Row | SMILES | Herbicidal effect grade, B: Scirpus juncoides (Scirpus juncoides) | e (wheat) effect on crop grade (wheat) | d: soybean, effect on crop grade (soybean [1]) | b (directly sowed rice plant) effect on crop grade (rice) | N: Amaranthus retroflexus, herbicidal effect grade (Amaranthus retroflexus) | Effect grade on crop, a: transplanted rice plant (transplanted rice plant) | K: Lolium multiflorum Lam., herbicidal effect grade (Lolium multiflorum Lam. [2]) | F: Digitaria ciliaris, herbicidal effect grade (Digitaria ciliaris) | I (Avena fatua) herbicidal effect grade (Avena fatua) | K (Lolium multiflorum Lam.) herbicidal effect grade (Lolium multiflorum Lam. [3]) | H (Echinochloa crus-galli var. crus-galli) herbicidal effect grade [4] | Herbicidal effect grade, C: Monochoria vaginalis (Monochoria vaginalis) | g: rapeseed, effect on crop grade (rapeseed) | H: Echinochloa crus-galli var. crus-galli, herbicidal effect grade [5] | M (Abutilon theophrasti) herbicidal effect grade (Abutilon theophrasti) | d (soybean) effect on crop grade (soybean [6]) | f (beet) effect on crop grade (beet) | c: corn, effect on crop grade (corn) | also measured
1 | CC(CC1CC(O)=C(c2c(C)cc(C)cc2C)C1=O)=NOCC1CC1 (centres unmarked) [1-024] | 5 (Herbicidal ratio of 90% or more (almost completely withered)) | 4 (Herbicidal ratio of 70% or higher and lower than 90%) | 2 (Herbicidal ratio of 20% or higher and lower than 40%) | 5 (Herbicidal ratio of 90% or more (almost completely withered)) | 0 (Herbicidal ratio of 5% or lower (almost no effect)) | 5 (Herbicidal ratio of 90% or more (almost completely withered)) | 5 (Herbicidal ratio of 90% or more (almost completely withered)) | 5 (Herbicidal ratio of 90% or more (almost completely withered)) | 4 (Herbicidal ratio of 70% or higher and lower than 90%) | 5 (Herbicidal ratio of 90% or more (almost completely withered)) | 5 (Herbicidal ratio of 90% or more (almost completely withered)) | 3 (Herbicidal ratio of 40% or higher and lower than 70%) | 4 (Herbicidal ratio of 70% or higher and lower than 90%) | 5 (Herbicidal ratio of 90% or more (almost completely withered)) | 3 (Herbicidal ratio of 40% or higher and lower than 70%) | 1 (Herbicidal ratio of 5% or higher and lower than 20%) | 0 (Herbicidal ratio of 5% or lower (almost no effect)) | 5 (Herbicidal ratio of 90% or more (almost completely withered)) | 
2 | CC(CC1CC(O)=C(c2c(C)cc(C)cc2C)C1=O)=NOCC(C)O (centres unmarked) [1-027] | 3 (Herbicidal ratio of 40% or higher and lower than 70%) | 3 (Herbicidal ratio of 40% or higher and lower than 70%) | 3 (Herbicidal ratio of 40% or higher and lower than 70%) | 5 (Herbicidal ratio of 90% or more (almost completely withered)) | 0 (Herbicidal ratio of 5% or lower (almost no effect)) | 4 (Herbicidal ratio of 70% or higher and lower than 90%) | 5 (Herbicidal ratio of 90% or more (almost completely withered)) | 5 (Herbicidal ratio of 90% or more (almost completely withered)) | 4 (Herbicidal ratio of 70% or higher and lower than 90%) | 5 (Herbicidal ratio of 90% or more (almost completely withered)) | 5 (Herbicidal ratio of 90% or more (almost completely withered)) | 0 (Herbicidal ratio of 5% or lower (almost no effect)) | 4 (Herbicidal ratio of 70% or higher and lower than 90%) | 5 (Herbicidal ratio of 90% or more (almost completely withered)) | 0 (Herbicidal ratio of 5% or lower (almost no effect)) | 0 (Herbicidal ratio of 5% or lower (almost no effect)) | 0 (Herbicidal ratio of 5% or lower (almost no effect)) | 5 (Herbicidal ratio of 90% or more (almost completely withered)) | 
3 | CON=C(C)CC1CC(OC(=O)CCC2CCCCC2)=C(c2c(C)cc(C)cc2C)C1=O (centres unmarked) [1-035] | 4 (Herbicidal ratio of 70% or higher and lower than 90%) | 4 (Herbicidal ratio of 70% or higher and lower than 90%) | 4 (Herbicidal ratio of 70% or higher and lower than 90%) | 5 (Herbicidal ratio of 90% or more (almost completely withered)) | 3 (Herbicidal ratio of 40% or higher and lower than 70%) |  | 5 (Herbicidal ratio of 90% or more (almost completely withered)) | 5 (Herbicidal ratio of 90% or more (almost completely withered)) | 4 (Herbicidal ratio of 70% or higher and lower than 90%) | 5 (Herbicidal ratio of 90% or more (almost completely withered)) | 5 (Herbicidal ratio of 90% or more (almost completely withered)) | 4 (Herbicidal ratio of 70% or higher and lower than 90%) | 4 (Herbicidal ratio of 70% or higher and lower than 90%) | 5 (Herbicidal ratio of 90% or more (almost completely withered)) | 5 (Herbicidal ratio of 90% or more (almost completely withered)) | 0 (Herbicidal ratio of 5% or lower (almost no effect)) | 3 (Herbicidal ratio of 40% or higher and lower than 70%) | 4 (Herbicidal ratio of 70% or higher and lower than 90%) | 
4 | CC#Cc1cc(C)c(C2=C(OC(=O)COc3ccccc3)CC(CC(=NOC)C(C)C)C2=O)c(C)c1 (centres unmarked) [9-003] | 4 (Herbicidal ratio of 70% or higher and lower than 90%) |  | 4 (Herbicidal ratio of 70% or higher and lower than 90%) |  | 0 (Herbicidal ratio of 5% or lower (almost no effect)) | 5 (Herbicidal ratio of 90% or more (almost completely withered)) | 5 (Herbicidal ratio of 90% or more (almost completely withered)) | 5 (Herbicidal ratio of 90% or more (almost completely withered)) |  |  |  |  | 4 (Herbicidal ratio of 70% or higher and lower than 90%) | 5 (Herbicidal ratio of 90% or more (almost completely withered)) |  |  |  | 5 (Herbicidal ratio of 90% or more (almost completely withered)) | R: Veronica persica, herbicidal effect grade (Veronica persica): 4 (Herbicidal ratio of 70% or higher and lower than 90%); Effect on crop grade, e: wheat (wheat): 4 (Herbicidal ratio of 70% or higher and lower than 90%); Effect on crop grade, b: directly sowed rice plant (rice): 5 (Herbicidal ratio of 90% or more (almost completely withered)); Herbicidal effect grade, I: Avena fatua (Avena fatua): 3 (Herbicidal ratio of 40% or higher and lower than 70%); Herbicidal effect grade, K: Lolium multiflorum Lam. (Lolium multiflorum Lam. [3]): 5 (Herbicidal ratio of 90% or more (almost completely withered)); Herbicidal effect grade, H: Echinochloa crus-galli var. crus-galli [4]: 5 (Herbicidal ratio of 90% or more (almost completely withered)); Herbicidal effect grade, M: Abutilon theophrasti (Abutilon theophrasti): 0 (Herbicidal ratio of 5% or lower (almost no effect)); Effect on crop grade, d: soybean (soybean [6]): 0 (Herbicidal ratio of 5% or lower (almost no effect)); Effect on crop grade, f: beet (beet): 0 (Herbicidal ratio of 5% or lower (almost no effect))
